According to the CheMixHub ionic liquid set:

Test: xn = mol fraction of the nth substance listed
Settings: 101 kPa

CCCC[n+]1ccn(C)c1.F[P-](F)(F)(F)(F)F + NCCO
Settings | electrical conductivity [S/m] | viscosity [mPa·s]
288.15 K, x2 = 0.8022 | 0.1847 | 45
288.15 K, x2 = 0.9028 | 0.1368 | 36
293.15 K, x2 = 0.3052 | 0.222 | 103
293.15 K, x2 = 0.387 | 0.236 | –
293.15 K, x2 = 0.5871 | 0.268 | –
293.15 K, x2 = 0.9592 | 0.1028 | –
298.15 K, x2 = 0 | 0.1851 | 182
298.15 K, x2 = 0.2113 | 0.256 | 92
298.15 K, x2 = 0.3052 | 0.292 | 76
298.15 K, x2 = 0.5352 | 0.337 | –
298.15 K, x2 = 0.8022 | 0.313 | 26
303.15 K, x2 = 0.6984 | 0.434 | 26
308.15 K, x2 = 0.387 | 0.506 | –
308.15 K, x2 = 0.4282 | 0.511 | 35
308.15 K, x2 = 0.4761 | 0.541 | –
313.15 K, x2 = 0.3052 | 0.602 | 35
313.15 K, x2 = 0.4761 | 0.669 | –
313.15 K, x2 = 0.5352 | 0.679 | –
313.15 K, x2 = 0.9592 | 0.25 | –
318.15 K, x2 = 0.3052 | 0.733 | 28
318.15 K, x2 = 0.4282 | 0.773 | 22.1
318.15 K, x2 = 0.4918 | 0.796 | 19.5
323.15 K, x2 = 0 | 0.504 | 48
323.15 K, x2 = 0.3052 | 0.875 | 23.1
323.15 K, x2 = 0.4761 | 0.967 | –
323.15 K, x2 = 0.5352 | 0.977 | –

CCCC[P+](CCCC)(CCCC)CCCC.[O-]c1ccccn1 + O=C=O
Settings | viscosity [mPa·s]
293 K, x2 = 0.5475 | 474

CN(C)C=O + CC[n+]1ccn(C)c1.[Cl-]
Settings | viscosity [mPa·s]
288.15 K, x1 = 1 | 0.94
